From patent publication US20120071493A1, “SUBSTITUTED 8-SULFONYL-2,3,4,5-TETRAHYDRO-1H-GAMMA-CARBOLINES, LIGANDS AND PHARMACEUTICAL COMPOSITION; METHOD FOR THE PRODUCTION AND USE OF SAME” (priority 2009, published 2012)

How the values were obtained:
[1] = system: animals as in example 18.1.1; experiment: Passive avoidance, memory disturbed by MK-801; type: in vivo, mice; settings: 0.2 mg/kg and 1 mg/kg intraperitoneally before training; MK-801 0.1 mg/kg
[2] = molecular target: T1, recombinant human 5-HT6 receptor (Homo sapiens, UniProt P50406); experiment: Antagonistic activity towards serotonin 5-HT6 receptors, cAMP cell function experiment; type: cell-based; settings: HEK 293 cells expressing recombinant human 5-HT6 receptor; cAMP response to 10 μM serotonin; read-out: IC50, ability to block serotonin 5-HT6 receptors in the setting of cell function experiments
T1 construct: host or cells: HEK 293 cells with tetracycline-induced T-Rex system (Invitrogen)
Protocol: Determination of antagonistic activity of substituted 8-sulfonyl-2,3,4,5-tetrahydro-1H-γ-carbolines of the general formula 1 towards serotonin 5-HT6 receptors. HEK 293 cells with tetracycline-induced T-Rex system (Invitrogen, USA) consistently expressing recombinant human 5-HT6 receptor, production of Etogen Scientific (USA), were used. The cells were grown in DMEM/10% FBS/1% AAS medium with Blasticidine S and Zeocin (both—Invitrogen, USA). According to the method worked up by the producer of T-Rex system tetracycline hydrochloride was added to the medium with the cells for the purpose of activation of 5-HT6 receptor expression. The cells were embedded in 96-well plates (30,000-40,000 cells per well) and incubated in 5%-CO2 incubator at 37° C. for 24 hs. Before experiments cells medium was replaced by Hank's balanced salt solution (HBSS), comprising 0.137 M NaCl, 5.4 mM KCl, 0.25 mM Na2HPO4, 0.44 mM KH2PO4, 1.3 mM CaCl2, 1.0 mM MgSO4, 5 mM HEPES (pH 7.4), 0.05% BSA and 1 mM IBMX. The tested compounds of general formula 1 were added to the cells in various concentrations. After incubation of the cells for 15 min at room temperature serotonin was added to them up to final concentration of 10 μM and incubation was continued for 30 min. The newly formed cAMP was determined by reagent kit LANCE cAMP Kit, according to the method described by the kit manufacturer […] (PerkinElmer, CIIIA). […] The data given testify that novel γ-carbolines of the general formula 1 are effective serotonin 5-HT6 receptor antagonists. Some of γ-carbolines of the general formula 1 have IC50<0.5 μM in the setting of cell function experiments (IC50—antagonist concentration blocking 5-HT6 receptors for 50%).

male mice of SHK line = experiment: Novel Object Recognition test, Scopolamine-disturbed recognition; type: in vivo; settings: 0.05 mg/kg and 0.2 mg/kg intraperitoneally 30 minutes before training; Scopolamine 1 mg/kg
Protocol: The test was carried out in aged male mice of SHK line. Plexiglass plus maze, consisted of 4 dead-end chambers (numbered 1, 2, 3, 4), joined together through the fifth central chamber, was used in experiments. Mouse was placed into central chamber and allowed to explore the maze. Floor was cleaned after each animal. The sequence of chamber entries and duration of visits were registered by observer. Test was ended after 13 entries into dead-end chambers. Criterion for entry was location of all animal's paws inside the chamber at the same time.
During the training an animal was placed in the maze with one equiform bowl in each side chamber. In the course of testing (one hour after training) two opposite standing bowls were replaced by identical flasks, and animal was allowed to explore the maze. The time spent by animal in each side chamber was registered during the periods of training and testing. Index of novel object recognition was calculated as ratio of time spent by animal in side chambers with novel objects to the total time spent by it in all side chambers. In comparison with the training phase the appearance of novel object extends the time spent by animal in the chamber with novel object (so-called effect of novel object recognition). The recognition of novel objects was disturbed under action of Scopolamine administered in 1 mg/kg dose intraperitoneally 30 minutes before training, and recognition index was decreased.

mice = experiment: Porsolt's Forced Swim Test; type: in vivo; settings: injected for 4 days in doses of 1 mg/kg; 15 minutes test
Protocol: Mice Behavior in Porsolt's Forced Swim Test. The test apparatus represented a plastic vessel filled with water up to height of 18 cm at 20-22° C. Mice were placed in water and for 15 minutes the duration of immobile hanging in water-so called behavioural […], which is considered to be a measure of depressively-like state, was registered. Automated computerized detection of motion with videosystem and Any-maze programm were used in test. […] This testifies the decreasing of time of a depressively-like state.

T1 sequence (P50406 whole entry): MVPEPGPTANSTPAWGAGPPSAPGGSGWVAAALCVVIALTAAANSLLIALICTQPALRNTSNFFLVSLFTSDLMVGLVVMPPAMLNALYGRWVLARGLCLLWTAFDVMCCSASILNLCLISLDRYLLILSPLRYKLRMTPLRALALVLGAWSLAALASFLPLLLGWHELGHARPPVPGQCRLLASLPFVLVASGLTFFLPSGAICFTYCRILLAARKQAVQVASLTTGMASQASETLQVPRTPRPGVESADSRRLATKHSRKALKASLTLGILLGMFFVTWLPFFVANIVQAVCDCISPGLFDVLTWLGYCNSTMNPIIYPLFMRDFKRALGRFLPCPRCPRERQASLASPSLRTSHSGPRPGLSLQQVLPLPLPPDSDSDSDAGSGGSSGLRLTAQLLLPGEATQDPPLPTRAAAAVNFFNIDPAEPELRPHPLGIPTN

Row | Structure (SMILES) | effect on amnesia caused by MK-801, passive avoidance [1] | IC50 [2] [nM] | prevention of Scopolamine influence on novel object recognition (male mice of SHK line) | duration of immobile hanging of mice in water (mice)
1 | CN1CCc2c(c3cc(S(=O)(=O)c4ccccc4)ccc3n2C)C1.Cl [1.1.1(4)•HCl, 2,5-dimethyl-8-(phenylsulfonyl)-2,3,4,5-tetrahydro-1H-γ-carboline hydrochloride] | decrease amnesia caused by MK-801 markedly | 78 | could be prevented | decreased almost thrice
2 | CN1CCc2[nH]c3ccc(S(=O)(=O)Nc4cccc(F)c4)cc3c2C1.Cl [1.2.1(3)•HCl, 2-methyl-2,3,4,5-tetrahydro-1H-γ-carboline-8-sulfonic acid 3-fluorophenyl amide hydrochloride] | analogous effect | 15 | could be prevented | decreased almost thrice
